Square brackets hold non-standard residues; d marks the D form. Peptide text beside a SMILES is read from it. * marks the point of attachment. X2 = O=C(NCCN1C(=O)CC(*)C1=O)c1ccc(C(=O)O)c(-c2c3ccc(=O)cc-3oc3cc(O)ccc23)c1; X1 = O=C(O)c1ccc(C(=O)*)cc1-c1c2ccc(=O)cc-2oc2cc(O)ccc12
Columns and labels:
sciatic nerve = assay: Fluorescence contrast in murine nerves: in vivo imaging of sciatic nerve after intravenous injection; design: species or system mouse; details: for N/B contrast compared to the equivalent NDMs comprising L-amino acids / N/S contrast compared to the equivalent NDMs comprising L-amino acids: retro-inverso (D-amino acids) versus NDM-39, NDM-41
Procedure: The visualization contrast activity of fluorescent peptides for nerve imaging was assessed using male immunocompetent hairless SKH1-E mice purchased from Charles River (Charles River, Wilmington, Mass. 01887, USA). SKH1-E mice weighing 25-30 grams were housed in group of 4 in individually ventilated IVC disposable cages (Innovive, Inc., San Diego, Calif. 92121, USA) and maintained under controlled environmental conditions (12-h/12-h light/dark cycle; temperature of 64-79F and relative humidity of 30-70%) for at least 5 days before experimental use. Animals had free access to standard laboratory rodent diet (Cat. #2018, Teklad Global 18% Protein Rodent Diet; Harlan Laboratories, Inc. Indianapolis, Ind. 46250, USA) and acidified drinking water throughout the course of study. All experiments were carried out under Institutional Animal Care and Use Committee (IACUC) approved protocol.
On the day of study, each involved mouse was weighed, examined for general condition and restrained using a rotating tail injector (Cat. #RTI, Braintree Scientific, Braintree, Mass. 021585, USA) for intravenous (tail vein) injection of test compound in conscious animal. The test compounds were tested (25-150 nmol in 0.1 mL/mouse) was then injected intravenously in mouse using a 28G1/2 Insulin syringe (Cat. #14-826-79, Becton Dickinson and Company, Franklin Lakes, N.J. 07417, USA). After the intravenous injection, each involved mouse was housed back in its assigned cage and kept under controlled environmental conditions before being examined for fluorescence labeling of the sciatic nerve.
Two hours after the intravenous injection, each involved mouse was terminally anesthetized with a mixture of ketamine HCl (Zetamine™, 100 mg/mL, ANADA 200-055 approved by FDA, NDC-13985-702-10; VETone®, Boise, Id. 83705, USA) and xylazine (Rompun™, 100 mg/mL, NADA-047-956 approved by FDA, Bayer HealthCare, LLC, Animal Health Divison, KS 66201, USA) which consisted of a combination of 100 mg/kg of ketamine with 10 mg/kg of xylazine administered intraperitoneally. The terminally anesthetized mouse was transferred on the piece of cork (4×4 inches, Quartet®, ACCO Brands, Lincolnshire, Ill. 60069, USA) for blunt dissection of sciatic nerve after checking the toe pinch reflex. The sciatic nerve was exposed by removing skin from the dorsal surface of the thigh and blunt dissecting the muscles parallel and posterior to the femur after checking […] (no reflex to toe pinch) in terminally anesthetized mouse. Full body imaging of the terminally anesthetized mouse with both sciatic nerves exposed was then performed using a computerized UVP BioSpectrum® 500 Imaging System fitted with appropriate excitation/emission filters for fluorescein, Cy5, or other dye detection and a VisionWorks® LS Software (UVP-BioSpectrum Imaging System, Upland, Calif., USA) for image acquisition and analysis. After the mouse full body imaging, the exposed and saline moisturized sciatic nerves were subsequently imaged using computerized fluorescence stereomicroscope (SZX 10, Olympus Optical, CO, LTD, Japan) interfaced with PictureFrame™, an image processing application suitable for image acquisition and analysis (Optronics, Goleta, Calif. 93117) or an in-house built Microscope Imaging System interfaced with Spot Software 5.0 (SPOT Imaging Solutions, Sterling Heights, Mich. 48314) for image acquisition and analysis. All above-mentioned Imaging Systems were equipped with appropriate excitation/emission filters for fluorescein, Cy5, or other dye detection. Following the imaging session, all captured images of fluorescently labeled sciatic nerves were examined and analyzed using the image processing program Image J to generate quantitative fluorescence data. For each involved mouse, fluorescence intensity of each examined sciatic nerve was acquired by drawing an area on the surface of the exposed sciatic nerve using Image J features and capabilities. […]

[1] = test system: dorsal subcutaneous cervical or thoracic nerves; assay: In vivo fluorescence imaging of dorsal subcutaneous cervical and thoracic nerves (FIG. 2, FIG. 3); design: species or system mouse; details: FIG. 2 and FIG. 3, fluorescence versus reflected light images
Excerpt: (§1) Nerves are more clearly visualized utilizing NDM-38.

splanchic nerve = assay: In vivo fluorescence imaging of splanchnic nerve (FIG. 4); details: FIG. 4, mouse, fluorescence versus reflected light images
Excerpt: as §1

renal nerve = assay: In vivo fluorescence imaging of renal nerve (FIG. 5); design: species or system mouse; details: FIG. 5, fluorescence versus reflected light images

SMILES	fluorescence contrast (nerve/background) of mouse sciatic nerve (sciatic nerve; FIG. 1, fluorescence versus reflected light images)	N/B contrast compared to the equivalent NDMs comprising L-amino acids (sciatic nerve)	N/S contrast compared to the equivalent NDMs comprising L-amino acids (sciatic nerve)	N/B contrast relative to NDMs with glycine linkers (sciatic nerve; alanine linker versus NDM-44)	N/S contrast relative to NDMs with glycine linkers (sciatic nerve; alanine linker versus NDM-44)	fluorescence contrast (nerve/background) of mouse dorsal subcutaneous cervical or thoracic nerves [1]	fluorescence contrast (nerve/background) of splanchic nerve (splanchic nerve)	fluorescence contrast (nerve/background) of mouse renal nerve (renal nerve)
CC(=O)N[C@H](CSC1CC(=O)N(CCNC(=O)c2ccc(C(=O)O)c(-c3c4ccc(=O)cc-4oc4cc(O)ccc34)c2)C1=O)C(=O)N[C@H](C)C(=O)N[C@H](C)C(=O)N[C@H](C)C(=O)N[C@@H](C(=O)N[C@H](Cc1c[nH]cn1)C(=O)N[C@H](CCC(=O)O)C(N)=O)[C@H](C)O (stereo partly drawn) [NDM-40, Ac-[D-Cys(6FAM)]-(D-Ala)-(D-Ala)-(D-Ala)-(D-Thr)-(D-His)-(D-Glu)-NH2] (Ac-[dC](X2)[dA][dA][dA][dT][dH][dE]-NH2)	very high fluorescence contrast	substantially higher	substantially higher					
CC(=O)N[C@H](CCCCNC(=O)c1ccc(C(=O)O)c(-c2c3ccc(=O)cc-3oc3cc(O)ccc23)c1)C(=O)N[C@H](C)C(=O)N[C@H](C)C(=O)N[C@H](C)C(=O)N[C@@H](C(=O)N[C@H](Cc1c[nH]cn1)C(=O)N[C@H](CCC(=O)O)C(N)=O)[C@H](C)O [NDM-38, Ac-[D-Lys(6FAM)]-(D-Ala)-(D-Ala)-(D-Ala)-(D-Thr)-(D-His)-(D-Glu)-NH2] (Ac-[dK](X1)[dA][dA][dA][dT][dH][dE]-NH2)		substantially higher	substantially higher	higher	higher	very high fluorescence contrast	very high fluorescence contrast	very high fluorescence contrast

Reference: US10994017B2, “Nerve labeling compositions and uses thereof” (Avelas Biosciences, Inc., priority 2016, dated 2021)
